Results reported in ChEMBL document CHEMBL5370651, “Integrating Taxonomic and Chemical Diversity of Mangrove-Associated Ascomycetes to Discover or Repurpose Bioactive Natural Products” (J Nat Prod, 2023).
Converted amounts (≈) assume the structure as drawn.

Key:
[1] = target: T1, Tyrosine-protein phosphatase non-receptor type 1 (Homo sapiens, UniProt P18031); assay: (§1) Inhibition of human PTP1B (1 to 400 residues) using pNPP as substrate preincubated for 10 mins followed by substrate addition and measured after 20 mins
T1 sequence (P18031 whole entry): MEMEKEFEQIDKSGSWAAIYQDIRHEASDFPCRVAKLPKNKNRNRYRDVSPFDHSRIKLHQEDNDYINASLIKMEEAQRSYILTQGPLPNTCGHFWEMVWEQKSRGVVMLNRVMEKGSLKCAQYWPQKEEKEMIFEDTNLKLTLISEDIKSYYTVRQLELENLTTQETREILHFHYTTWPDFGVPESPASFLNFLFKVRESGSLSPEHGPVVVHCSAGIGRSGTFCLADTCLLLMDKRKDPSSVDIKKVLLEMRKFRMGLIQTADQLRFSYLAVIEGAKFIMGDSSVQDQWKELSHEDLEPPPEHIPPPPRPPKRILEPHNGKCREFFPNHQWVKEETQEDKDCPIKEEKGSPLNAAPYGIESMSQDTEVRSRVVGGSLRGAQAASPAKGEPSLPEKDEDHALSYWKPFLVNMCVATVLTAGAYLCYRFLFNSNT

[2] = target: T2, Tyrosine-protein phosphatase non-receptor type 1 (Homo sapiens) (UniProt P18031); assay: as §1
T2 sequence (whole entry): T1 sequence (P18031 whole entry)

[3] = tested on: Staphylococcus epidermidis; assay: Antibacterial activity against Staphylococcus epidermidis 42R assessed as reduction in bacterial growth incubated for 16 hrs by broth microdilution method; format: functional
Acinetobacter baumannii = assay: Antibacterial activity against pandrug-resistant Acinetobacter baumannii A564 assessed as bacterial growth inhibition at 50 ug/ml incubated for 16 hrs by broth microdilution method relative to control; format: functional; conditions: read-out: GI
Staphylococcus aureus = assay: Antibacterial activity against Staphylococcus aureus assessed as reduction in bacterial growth incubated for 16 hrs by broth microdilution method; format: functional

CC[C@H](C)C[C@H](C)[C@@H](O)[C@@H](C)/C=C(\C)[C@@H](O)[C@@H](C)/C=C(\C)[C@@H](O)[C@@H](C)/C=C(\C)C=O
IC50 [1]: 27 µM | inhibition [2]: Dose-Dependent Effect

CCCCCCCC(=O)c1c(O)cc(O)cc1CC(=O)OCC [CYTOSPORONE B]
MIC [3]: 21 µg/mL (≈ 65.1 µM) | inhibition of growth at 50 µg/mL (Acinetobacter baumannii): 51% | MIC (Staphylococcus aureus): 18 µg/mL (≈ 55.8 µM)
